Laboratory results from patent publication US20230248726A1, “PHARMACEUTICAL COMPOSITION AND APPLICATION THEREOF” (SHANGHAI RAISING PHARMACEUTICAL CO., LTD., priority 2020, published 2023).
Structures can show the parent of a compound that is named as a salt.

System: APP/PS1/Tau mice
Assay: Morris water maze test
Format: in vivo
Conditions: for Time in the target quadrant / Times of crossing over the platform / latent period: APP/PS1/Tau mice, intragastric daily for 8 weeks, testing Day 6, n = 10, BTMP 200 mg/kg, VB1 200 mg/kg, donepezil hydrochloride 1.5 mg/kg, ½BTMP 100 mg/kg; for spatial memory and learning ability of the AD mice (result in words): Morris water maze, compared with the model group
Text: In water, rodents have a strong motivation to escape from the water environment, and can escape from the water environment in the fastest and most direct way. The process of learning to escape from the water environment reflects the learning ability of animals. Spatial positioning according to the surrounding environment and swimming to a safe place in the water (such as a platform) on purpose can reflect the spatial learning and memory ability of animals.
The test animals were male APP/PS1/Tau mice and C57BL/6 wild type mice. The mice were 8 months old, weighing […], and purchased from The Jackson laboratory.
App/PS1/Tau mice are APP/PS1/tau triple transgenic Alzheimer's disease (3×Tg-AD) model mice, whose AO deposition occurs several months earlier than the pathological change of the tau protein, and can more realistically simulate the clinical process and pathological changes of Alzheimer's disease.
Preparation of a 10 mg/ml vitamin B1 solution (dosage: 200 mg/kg): 500 mg of vitamin B1 was weighed, and 0.7% m/v CMC-Na was added to reach 50 ml, to obtain a 10 mg/ml solution.
Preparation of a 10 mg/ml BTMP suspension (dosage: 200 mg/kg): 500 mg of BTMP was weighed, and 0.7% m/v CMC-Na was added to reach 50 ml, to obtain a 10 mg/ml BTMP suspension.
Preparation of a 0.075 mg/ml donepezil hydrochloride suspension (dosage: 1.5 mg/kg): one donepezil hydrochloride tablet (containing 5 mg donepezil hydrochloride) was ground, and 0.7% m/v CMC-Na was added to reach 66.67 ml, to obtain a 0.075 mg/ml donepezil hydrochloride suspension.
(§1) Preparation of a 10 mg/ml BTMP suspension+0.075 mg/ml donepezil hydrochloride suspension (dosage: 200 mg/kg BTMP suspension+1.5 mg/kg donepezil hydrochloride suspension): a 20 mg/ml BTMP suspension and a 0.15 mg/ml donepezil hydrochloride suspension were respectively prepared, and equal volumes were evenly mixed before administration, to obtain a 10 mg/ml BTMP suspension+0.075 mg/ml donepezil hydrochloride suspension.
as §1, with “5” for “10”, “100” for “200”, “10” for “20”
The mice in the blank control group, the model group and the test groups were intragastrically administered according to the dosage/specification in 2.2. for 8 weeks, and the water maze training and testing were started in the last week of the administration. The water maze training and testing lasted for 6 days, with 5 days of training and 1 day of testing. In addition, during the water maze training and testing period (6 days in total), conditions such as the indoor lighting etc. were kept constant, and the room was kept quiet, so as to eliminate the interference of the environment and personnel.
(1) Pre-test preparation: an appropriate amount of water was placed in a water maze pool with water temperature being kept at 22±3° C., a platform was placed at a fixed position (the target quadrant) and 1 cm below the water surface, and titanium dioxide was added until water color was white, and the platform could not be seen clearly.
(2) Training period (Day 1 to Day 5): each mouse was placed on the platform for 15 s (to increase the mouse's sense of security on the platform) prior to the first quadrant training on each day, and then the mouse was placed in the quadrant where the platform located in the pool (head towards the wall), and a swimming time of 60 s was set. If it found the platform within 60 s and stayed for 5 s, it was considered as a success in finding the platform.
After the first quadrant training, the training in the remaining three quadrants was performed in turn, wherein it is not necessary to place the mice on the platform and hold for 15 s before training.

Structure (SMILES) | Time in the target quadrant | Times of crossing over the platform | latent period | spatial memory and learning ability of the AD mice (result in words)
C/C(=C(\CCOP(=O)(O)O)SC(=O)c1ccccc1)N(C=O)Cc1cnc(C)nc1N [BTMP, S-2-[[(2-methyl-4-amino-5-pyrimidinyl)methyl]formylamino]-5-phosphonooxy-2,3-pentenyl-3-mercaptobenzoate] | 14.96 ± 1.50 s | 2.10 ± 0.74 | 26.10 ± 1.85 s | significantly improved
COc1cc2c(cc1OC)C(=O)C(CC1CCN(Cc3ccccc3)CC1)C2 (stereo not drawn) [Donepezil hydrochloride, donepezil hydrochloride] | 14.44 ± 1.11 s | 1.80 ± 0.79 | 27.80 ± 2.04 s | significantly improved
Cc1ncc(C[n+]2csc(CCO)c2C)c(N)n1 [VB1, vitamin B1] | 11.87 ± 1.17^*#& s | 1.00 ± 0.67^*& | 35.10 ± 4.09^*#& s | did not significantly improve
